The results in this text go back to US6855512B2, “Methods for identifying inhibitors of cytochrome P450RAI” (Allergan, Inc., priority 2000, dated 2005).

The experiment has as its target T1, P450RAI-1 (Homo sapiens, UniProt O43174).
T1 construct: expressed in transfected cells; host or cells: HeLa (stably transfected, hygromycin selection)
T1 sequence (O43174 1-497): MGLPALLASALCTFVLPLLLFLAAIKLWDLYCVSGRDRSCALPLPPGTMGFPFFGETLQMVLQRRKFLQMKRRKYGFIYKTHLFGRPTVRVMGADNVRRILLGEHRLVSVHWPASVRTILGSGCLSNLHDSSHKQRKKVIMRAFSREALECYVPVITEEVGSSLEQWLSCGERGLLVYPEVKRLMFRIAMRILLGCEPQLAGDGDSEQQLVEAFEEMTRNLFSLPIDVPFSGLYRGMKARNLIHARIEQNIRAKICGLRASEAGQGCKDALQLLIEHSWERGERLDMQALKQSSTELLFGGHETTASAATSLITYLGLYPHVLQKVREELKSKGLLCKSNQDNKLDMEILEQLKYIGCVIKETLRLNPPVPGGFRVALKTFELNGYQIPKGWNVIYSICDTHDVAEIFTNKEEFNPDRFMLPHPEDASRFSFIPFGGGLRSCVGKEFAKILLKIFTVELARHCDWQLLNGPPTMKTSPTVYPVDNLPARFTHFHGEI
Put plainly: P450RAI-1 cell-based inhibitor assay (intact HeLa). To be noted: read-out: P450RAI INHIBITION DATA INTACT HELA IC50. As for the experimental part:
P450RAI-1 Cell-Based Inhibitor Assay:
P450RAI-1 stably transfected HeLa cells are maintained in […] tissue culture dishes in Modified Eagle's Medium (MEM) containing 10% Fetal Bovine Serum (FBS) and 100 μg/ml hygromycin. Exponentially growing cells are harvested by incubating in trypsin. Cells are then washed with 1× Phosphate Buffered Saline (PBS) and plated in a 48-well plate at 5×10^5 cells in 0.2 ml MEM medium containing 10% FBS and 0.05 μCi [^3H]-RA in the presence or absence of increasing concentrations of the test compounds. The compounds are diluted in 100% DMSO and then added in triplicate wells at either 10, 1 or 0.1 μM final concentration. As a positive control for RA metabolism inhibition, cells are also incubated with ketoconazole at 100, 10 and 1 μM. Cell are incubated for 3 hours at 37° C. […] The water soluble radioactivity is quantified using β-scintillation counter. IC50 values represent the concentration of inhibitor required to inhibit all-trans-RA metabolism by 50 percent and are derived manually from log-transformed data.
What is called IC50 is the concentration that gives 50% inhibition. With `CC1(C)CC(C)(C)c2cc(C(=O)Oc3ccc(C(=O)O)cc3)ccc2O1` [Compound 231], the IC50 was 4.1 µM.
As for `CC1(C)CC(C)(C)c2cc(C(=O)Nc3ccc(C(=O)O)c(F)c3)cc(C3CC3)c2O1` [Compound 204], the figure is 0.7 µM.
As for `CCOc1c(Br)cc(C(=O)Nc2ccc(C(=O)O)c(F)c2)cc1C(C)(C)C` [Compound 223], the figure is > 10 µM; as for `CC(C)(C)c1cc(C#Cc2ccc(C(=O)O)cc2)cc(C(C)(C)C)c1O` [Compound 235], 7 µM; as for `CC1(C)CCCc2cc(C#Cc3ccc(C(=O)O)cc3)ccc21` [Compound 218], 3.4 µM.
As for `CC1(C)CCSc2ccc(C#Cc3ccc(C(=O)O)s3)cc21` [Compound 240], the figure is 3 µM.
Turning to `CC1(C)CCC(C)(C)c2cc(C(=O)Oc3ccc(C(=O)O)cc3)ccc21` [Compound 243], the IC50 worked out at 7.4 µM.
As for `CC1(C)CC(C)(C)c2cc(C(=O)Nc3ccc(C(=O)O)c(F)n3)cc(Cl)c2O1` [Compound 221], the figure is > 10 µM; as for `CC1(C)CCC(C)(C)c2cc(C#Cc3ccc(C(=O)O)c(F)c3)ccc21` [Compound 230], 5.1 µM.
`CC1(C)CCC(C)(C)c2cc(C(=O)Nc3ccc(C(=O)O)c(F)c3)ccc21` [Compound 237]: the IC50 was found to be 6.8 µM.
`CC1=C(/C=C/C#Cc2ccc(C(=O)O)s2)C(C)(C)CCC1` [Compound 245]: the IC50 came to 3.3 µM.
As for `Cc1cc(C(=O)Nc2ccc(C(=O)O)cc2)cc2c1OC(C)(C)CC2(C)C` [Compound 227], the figure is 1.3 µM.
As to `CC1=C(/C=C/C#Cc2ccc(C(=O)O)cc2)C(C)(C)CCC1` [Compound 217], the IC50 worked out at 6.3 µM.
As for `CC1(C)CCC(O)c2ccc(C#Cc3ccc(C(=O)O)cc3)cc21` (stereo not drawn) [Compound 232], the figure is 4.2 µM; as for `CC(C)(C)c1cc(C#Cc2ccc(C(=O)O)cc2)cc(Cl)c1O` [Compound 209], 1.7 µM.
As for `CC1=C(/C=C/C#Cc2ccc(C(=O)O)cn2)C(C)(C)CCC1` [Compound 244], the figure is 5.1 µM; as for `COc1ccc(C#Cc2ccc(C(=O)O)cc2)cc1C12CC3CC(CC(C3)C1)C2` [Compound 214], 1.9 µM.
As for `CC1=C(/C=C/C#Cc2ccc(C(=O)O)cc2)C(C)(C)CCC1(C)C` [Compound 212], the figure is 7 µM.
For the compound `CC1(C)CCC(C)(C)c2c1cc(O)c(C(=O)Nc1ccc(C(=O)O)cc1)c2F` [Compound 246], the IC50 came out at 3.1 µM.
For the compound `CCOc1c(I)cc(C(=O)Nc2ccc(C(=O)O)c(F)c2)cc1C(C)(C)C` [Compound 222], the concentration for half-maximal inhibition (IC50) is > 10 µM.
In the case of `CC1(C)CCC(C)(C)c2cc(C(=O)/C=C/c3ccc(C(=O)O)cc3)ccc21` [Compound 242], the IC50 was 5.8 µM.
As to `CC1(C)CC(C)(C)c2cc(C(=O)Nc3ccc(C(=O)O)c(F)c3)cc(-c3ccccc3)c2O1` [Compound 224], the IC50 turned out to be 5.5 µM.
As for `CC1(C)CC(C)(C)c2cc(C(=O)Nc3ccc(C(=O)O)c(F)c3)cc(C(F)(F)F)c2O1` [Compound 205], the figure is 1 µM.
For the compound `CC1=C(/C=C/C#Cc2ccc(C(=O)O)cc2)C(C)(C)CCS1` [Compound 219], the IC50 was found to be 3.2 µM.
Turning to `CC1(C)CCSc2ccc(C#Cc3ccc(C(=O)O)cc3)cc21` [Compound 215], the IC50 was found to be 6.2 µM.
As for `CC1(C)CC(C)(C)c2cc(C(=O)Nc3ccc(C(=O)O)c(F)c3)ccc2O1` [Compound 228], the figure is 6 µM.
As for `O=C(O)c1ccc2cc(-c3ccc(O)c(C45CC6CC(CC(C6)C4)C5)c3)ccc2c1` [Compound 233], the figure is 1.3 µM.
As for `CC1(C)CCSc2ccc(C#Cc3ccc(CC(=O)O)cc3)cc21` [Compound 202], the figure is 0.6 µM; as for `CC1(C)CC(C)(C)c2cc(C(=O)Nc3ccc(C(=O)O)c(F)c3)cc(Cl)c2O1` [Compound 203], 0.62 µM.
With `CC1=C(/C=C/C#Cc2ccc(C(=O)O)c(F)c2)C(C)(C)CCC1` [Compound 229], the IC50 worked out at 1.6 µM.
As for `CC1(C)CCOc2c(Br)cc(C(=O)Nc3ccc(C(=O)O)c(F)c3)cc21` [Compound 225], the figure is > 10 µM; as for `CC1(C)CCSc2ccc(C#Cc3ccc(C(=O)O)cn3)cc21` [Compound 238], 7.2 µM.
Regarding `Cc1cc(C(=O)Nc2ccc(C(=O)O)c(F)c2)cc2c1OC(C)(C)CC2(C)C` [Compound 220], the IC50 amounted to 1 µM.
As for `CCC1(CC)CC(C)(C)c2cc(C(=O)Nc3ccc(C(=O)O)c(F)c3)cc(Br)c2O1` [Compound 206], the figure is 1.8 µM; as for `COc1ccc(-c2ccc3cc(C(=O)O)ccc3c2)cc1C12CC3CC(CC(C3)C1)C2` [Compound 234], 4.7 µM.
On to `CC1(C)CCC(C)(C)c2cc(-c3ccc4cc(C(=O)O)ccc4c3)ccc21` [Compound 241], for which the half-inhibitory concentration (IC50) turned out to be 5.5 µM.
As for `COc1cc(C(=O)Nc2ccc(C(=O)O)c(F)c2)cc2c1OC(C)(C)CC2(C)C` [Compound 226], the figure is > 10 µM; as for `CC1(C)CCCc2ccc(C#Cc3ccc(C(=O)O)cc3)cc21` [Compound 208], 1 µM.
As for `CC1(C)CCC(C)(C)c2cc(C#Cc3ccc(C(=O)O)cc3)ccc21` [Compound 216], the figure is 3.3 µM.
